Laboratory results from PubChem BioAssay (NCI).
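Dose response: 5 concentrations. Exposure: 48 h. Format: 96-well plates. Endpoint: linear interpolation; highest concentration if not reached. TGI: total growth inhibition.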

What was measured:
Assay in all cases: DTP human tumour cell line panel, 48 h
CAKI-1 renal = tested on: CAKI-1 renal
HS 578T breast = tested on: HS 578T breast
COLO 205 colon = tested on: COLO 205 colon
NCI-H23 lung = tested on: NCI-H23 lung
TK-10 renal = tested on: TK-10 renal
MDA-N = tested on: MDA-N
EKVX NSCLC = tested on: EKVX NSCLC
SNB-75 CNS = tested on: SNB-75 CNS
SW-620 colon = tested on: SW-620 colon
MDA-MB-231 breast = tested on: MDA-MB-231 breast

C=C(C)C(=O)CC[C@@H](C)[C@H]1[C@@H](OC2OC(CO)C(O)C(O)C2O)C[C@@]2(C)[C@@H]3C[C@H](O)C4C(C)(C)[C@@H](OC5OC(CO)C(O)C(O)C5O)CC[C@@]45C[C@@]35CC[C@]12C (stereo partly drawn) showed a TGI (CAKI-1 renal) of over 100 µM, a TGI (HS 578T breast) of over 100 µM and a TGI (COLO 205 colon) of over 100 µM. For the same compound, the TGI (NCI-H23 lung) was over 100 µM, the TGI (TK-10 renal) was over 100 µM and the TGI (MDA-N) was 55.6 µM. It also gave a TGI (EKVX NSCLC) of over 100 µM, a TGI (SNB-75 CNS) of over 100 µM and a TGI (SW-620 colon) of over 100 µM. For the same compound, the TGI (MDA-MB-231 breast) was over 100 µM.

CC1=NN(C(=O)CSc2nnc(SCC(=O)N3N=C(C)CC3(O)c3ccccc3)s2)C(O)(c2ccccc2)C1 (stereo not drawn) showed a TGI (CAKI-1 renal) of over 100 µM, a TGI (HS 578T breast) of 70.2 µM and a TGI (COLO 205 colon) of over 100 µM. The TGI (NCI-H23 lung) was over 100 µM, the TGI (TK-10 renal) was over 100 µM and the TGI (MDA-N) was over 100 µM. For the same compound, the TGI (EKVX NSCLC) was over 100 µM, the TGI (SW-620 colon) was over 100 µM and the TGI (MDA-MB-231 breast) was over 100 µM.

CCC(C)[C@@H](NCc1ccccc1)[C@H](OCc1ccccc1)[C@@H]1COC(C)(C)O1 (stereo partly drawn) showed a TGI (HS 578T breast) of 70.7 µM, a TGI (COLO 205 colon) of 36.6 µM and a TGI (NCI-H23 lung) of 44.3 µM. It also gave a TGI (TK-10 renal) of 32.7 µM, a TGI (MDA-N) of over 100 µM and a TGI (EKVX NSCLC) of 42.7 µM. For the same compound, the TGI (SNB-75 CNS) was over 100 µM, the TGI (SW-620 colon) was 48.5 µM and the TGI (MDA-MB-231 breast) was 40.4 µM.

For CCOC(=O)c1cnc(-n2[nH]c(C)c(CCO)c2=O)[nH]c1=O, the TGI (CAKI-1 renal) was over 100 µM, the TGI (HS 578T breast) was over 100 µM and the TGI (COLO 205 colon) was over 100 µM. It also gave a TGI (NCI-H23 lung) of over 100 µM, a TGI (TK-10 renal) of over 100 µM and a TGI (MDA-N) of over 100 µM. It also gave a TGI (EKVX NSCLC) of over 100 µM, a TGI (SNB-75 CNS) of over 100 µM and a TGI (SW-620 colon) of over 100 µM. The TGI (MDA-MB-231 breast) was over 100 µM.

C=C(C)[C@@H]1CC[C@]2(C(=O)O)CC[C@]3(C)[C@H](CC[C@@H]4[C@@]5(C)CC(=O)C(C)(C)[C@@H]5CC[C@]43C)[C@@H]12 was tested, and the TGI (CAKI-1 renal) was over 25 µM, the TGI (HS 578T breast) was over 25 µM and the TGI (COLO 205 colon) was 8.71 µM. The TGI (NCI-H23 lung) was over 25 µM, the TGI (TK-10 renal) was over 25 µM and the TGI (MDA-N) was over 25 µM. It also gave a TGI (EKVX NSCLC) of over 25 µM, a TGI (SNB-75 CNS) of over 25 µM and a TGI (SW-620 colon) of over 25 µM. It also gave a TGI (MDA-MB-231 breast) of 14.3 µM.

O=c1cc(CNC2CCCC2)[nH]c(=O)[nH]1 gave a TGI (CAKI-1 renal) of over 100 µM, a TGI (HS 578T breast) of over 100 µM and a TGI (COLO 205 colon) of over 100 µM. The TGI (NCI-H23 lung) was over 100 µM, the TGI (TK-10 renal) was over 100 µM and the TGI (MDA-N) was over 100 µM. It also gave a TGI (EKVX NSCLC) of over 100 µM, a TGI (SNB-75 CNS) of over 100 µM and a TGI (SW-620 colon) of over 100 µM. The TGI (MDA-MB-231 breast) was over 100 µM.
